Results taken from ChEMBL document CHEMBL1131541, “New synthetic inhibitors of microtubule depolymerization” (1998).
Active and inactive are the calls of the source. The rule behind the calls is not given here.

Molecular target: Tubulin beta chain (Bos taurus) (UniProt Q6B856)
Assay: Effect on microtubule stabilization isolated from bovine brain

Tubulin beta chain (Bos taurus), sequence (Q6B856 whole entry): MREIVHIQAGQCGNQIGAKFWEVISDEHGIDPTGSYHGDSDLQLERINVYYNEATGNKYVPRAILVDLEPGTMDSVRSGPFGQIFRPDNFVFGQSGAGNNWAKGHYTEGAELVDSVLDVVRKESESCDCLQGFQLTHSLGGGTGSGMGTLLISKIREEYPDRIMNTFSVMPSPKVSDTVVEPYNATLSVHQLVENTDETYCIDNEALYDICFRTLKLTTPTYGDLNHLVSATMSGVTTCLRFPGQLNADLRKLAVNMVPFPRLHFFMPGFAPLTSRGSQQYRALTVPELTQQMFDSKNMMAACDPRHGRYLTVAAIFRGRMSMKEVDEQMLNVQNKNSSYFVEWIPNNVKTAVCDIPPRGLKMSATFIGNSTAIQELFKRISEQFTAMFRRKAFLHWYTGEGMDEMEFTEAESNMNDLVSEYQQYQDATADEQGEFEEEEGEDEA

Compound	Relative stability
CCOC(=O)N[C@@H](c1ccncc1)[C@@H](O)C(=O)OC1CC2C(C)(C)C1(C)[C@@]13C[C@](O)(CO)c4ccccc4[C@@]21O3 (stereo partly specified)	327%
CCCCOC(=O)N[C@@H](c1ccc(O)cc1)[C@@H](O)C(=O)OC1CC2C(C)(C)C1(C)[C@@]13CC(C)c4ccccc4[C@@]21O3 (stereo partly specified)	80%
CCCC(=O)N[C@@H](c1ccsc1)[C@@H](O)C(=O)OC1CC2C(C)(C)C1(C)[C@@]13CC(C)c4ccccc4[C@@]21O3 (stereo partly specified)	91%
CCCCNC(=O)N[C@@H](c1ccccc1)[C@@H](O)C(=O)OC1CC2C(C)(C)C1(C)[C@@]13C[C@H](C)c4ccccc4[C@@]21O3 (stereo partly specified)	130%
CCOC(=O)N[C@@H](c1cccs1)[C@@H](O)C(=O)OC1CC2C(C)(C)C1(C)[C@@]13C[C@H](C)c4ccccc4[C@@]21O3 (stereo partly specified)	311%
CCOC(=O)N[C@@H](c1ccsc1)[C@@H](O)C(=O)OC1CC2C(C)(C)C1(C)[C@@]13C[C@H](C)c4ccccc4[C@@]21O3 (stereo partly specified)	788%
C=C1C[C@@]23O[C@]2(c2ccccc21)C1CC(OC(=O)[C@H](O)[C@@H](NC(=O)OCC)c2ccncc2)C3(C)C1(C)C (stereo partly specified)	423%
C=C1C[C@@]23O[C@]2(c2ccccc21)C1CC(OC(=O)[C@H](O)[C@@H](NC(=O)OC)c2ccccc2)C3(C)C1(C)C (stereo partly specified)	164%
C=C1C[C@@]23O[C@]2(c2ccccc21)C1CC(OC(=O)[C@H](O)[C@@H](NC(=O)OCC)c2ccc(Cl)cc2)C3(C)C1(C)C (stereo partly specified)	163%
CCOC(=O)N[C@@H](c1ccsc1)[C@@H](O)C(=O)OC1CC2C(C)(C)C1(C)[C@@]13C[C@@H](C)c4ccccc4[C@@]21O3 (stereo partly specified)	58%
CCOC(=O)N[C@@H](c1ccccc1)[C@@H](O)C(=O)OC1CC2C(C)(C)C1(C)[C@@]13C[C@](O)(COC(C)=O)c4ccccc4[C@@]21O3 (stereo partly specified)	22%
CCOC(=O)N[C@@H](c1ccccc1)[C@@H](O)C(=O)OC1CC2C(C)(C)C1(C)[C@@]13C[C@](O)(CO)c4ccccc4[C@@]21O3 (stereo partly specified)	20%
CC(C)NC(=O)N[C@@H](c1ccsc1)[C@@H](O)C(=O)OC1CC2C(C)(C)C1(C)[C@@]13CC(C)c4ccccc4[C@@]21O3 (stereo partly specified)	56%
C=C1C[C@@]23O[C@]2(c2ccccc21)C1CC(OC(=O)[C@H](O)[C@@H](NC(=O)OCCCC)c2ccccc2)C3(C)C1(C)C (stereo partly specified)	83%
CCOC(=O)N[C@@H](c1ccncc1)[C@@H](O)C(=O)OC1CC2C(C)(C)C1(C)[C@@]13C[C@H](C)c4ccccc4[C@@]21O3 (stereo partly specified)	1300%
C=C1C[C@@]23O[C@]2(c2ccccc21)C1CC(OC(=O)[C@H](O)[C@@H](NC(=O)OCC)c2ccc(OC)cc2)C3(C)C1(C)C (stereo partly specified)	95%
C=C1C[C@@]23O[C@]2(c2ccccc21)C1CC(OC(=O)[C@H](O)[C@@H](NC(=O)OCC)c2ccsc2)C3(C)C1(C)C (stereo partly specified)	788%
CCCC(=O)N[C@@H](c1ccccc1)[C@@H](O)C(=O)OC1CC2C(C)(C)C1(C)[C@@]13C[C@H](C)c4ccccc4[C@@]21O3 (stereo partly specified)	168%
CCCC(=O)N[C@@H](c1ccncc1)[C@@H](O)C(=O)OC1CC2C(C)(C)C1(C)[C@@]13CC(C)c4ccccc4[C@@]21O3 (stereo partly specified)	862%
CC(C)NC(=O)N[C@@H](c1ccccc1)[C@@H](O)C(=O)OC1CC2C(C)(C)C1(C)[C@@]13C[C@H](C)c4ccccc4[C@@]21O3 (stereo partly specified)	150%
CCOC(=O)N[C@@H](c1ccc(F)cc1)[C@@H](O)C(=O)OC1CC2C(C)(C)C1(C)[C@@]13C[C@H](C)c4ccccc4[C@@]21O3 (stereo partly specified)	139%
C=C1C[C@@]23O[C@]2(c2ccccc21)C1CC(OC(=O)[C@H](O)[C@@H](NC(=O)CC(C)C)c2ccccc2)C3(C)C1(C)C (stereo partly specified)	101%
C=C1C[C@@]23O[C@]2(c2ccccc21)C1CC(OC(=O)[C@H](O)[C@@H](NC(=O)OCC)c2ccc(F)cc2)C3(C)C1(C)C (stereo partly specified)	152%
CCOC(=O)N[C@@H](c1cccnc1)[C@@H](O)C(=O)OC1CC2C(C)(C)C1(C)[C@@]13C[C@H](C)c4ccccc4[C@@]21O3 (stereo partly specified)	119%
COC(=O)N[C@@H](c1ccccc1)[C@@H](O)C(=O)OC1CC2C(C)(C)C1(C)[C@@]13C[C@H](C)c4ccccc4[C@@]21O3 (stereo partly specified)	244%
C=C1C[C@@]23O[C@]2(c2ccccc21)C1CC(OC(=O)[C@H](O)[C@@H](NC(=O)OCC)c2cccnc2)C3(C)C1(C)C (stereo partly specified)	65%
COC(=O)N[C@@H](c1ccncc1)[C@@H](O)C(=O)OC1CC2C(C)(C)C1(C)[C@@]13C[C@](O)(COC(C)=O)c4ccccc4[C@@]21O3 (stereo partly specified)	116%
C=C1C[C@@]23O[C@]2(c2ccccc21)C1CC(OC(=O)[C@H](O)[C@@H](NC(=O)OCC)c2cccc(F)c2)C3(C)C1(C)C (stereo partly specified)	106%

Compound	Relative stability
CCCCOC(=O)N[C@@H](c1ccncc1)[C@@H](O)C(=O)OC1CC2C(C)(C)C1(C)[C@@]13CC(C)c4ccccc4[C@@]21O3 (stereo partly specified)	-3%
C=C1C[C@@]23O[C@]2(c2ccccc21)C1CC(OC(=O)[C@H](O)[C@@H](NC(=O)NC(C)C)c2ccccc2)C3(C)C1(C)C (stereo partly specified)	103%
COC(=O)N[C@@H](c1ccsc1)[C@@H](O)C(=O)OC1CC2C(C)(C)C1(C)[C@@]13CC(C)c4ccccc4[C@@]21O3 (stereo partly specified)	316%
C[C@H]1C[C@@]23O[C@]2(c2ccccc21)C1CC(OC(=O)[C@H](O)[C@@H](NC(=O)OC(C)(C)C)c2ccccc2)C3(C)C1(C)C (stereo partly specified)	148%
CCOC(=O)N[C@@H](c1ccc(O)cc1)[C@@H](O)C(=O)OC1CC2C(C)(C)C1(C)[C@@]13C[C@H](C)c4ccccc4[C@@]21O3 (stereo partly specified)	306%
CCOC(=O)N[C@@H](c1cccc(F)c1)[C@@H](O)C(=O)OC1CC2C(C)(C)C1(C)[C@@]13C[C@H](C)c4ccccc4[C@@]21O3 (stereo partly specified)	139%
CCOC(=O)N[C@@H](c1ccncc1)[C@@H](O)C(=O)OC1CC2C(C)(C)C1(C)[C@@]13C[C@@H](C)c4ccccc4[C@@]21O3 (stereo partly specified)	227%
C=C1C[C@@]23O[C@]2(c2ccccc21)C1CC(OC(=O)[C@H](O)[C@@H](NC(=O)NCCCC)c2ccccc2)C3(C)C1(C)C (stereo partly specified)	68%
C=C1C[C@@]23O[C@]2(c2ccccc21)C1CC(OC(=O)[C@H](O)[C@@H](NC(=O)CC)c2ccccc2)C3(C)C1(C)C (stereo partly specified)	108%
C=C1C[C@@]23O[C@]2(c2ccccc21)C1CC(OC(=O)[C@H](O)[C@@H](NC(=O)OCC)c2ccc(O)cc2)C3(C)C1(C)C (stereo partly specified)	130%
C[C@H]1C[C@@]23O[C@]2(c2ccccc21)C1CC(OC(=O)[C@H](O)[C@@H](NC(=O)CCC2CCCC2)c2ccccc2)C3(C)C1(C)C (stereo partly specified)	86%
CCOC(=O)N[C@@H](c1ccc(Cl)cc1)[C@@H](O)C(=O)OC1CC2C(C)(C)C1(C)[C@@]13C[C@H](C)c4ccccc4[C@@]21O3 (stereo partly specified)	193%
CCOC(=O)N[C@@H](c1ccoc1)[C@@H](O)C(=O)OC1CC2C(C)(C)C1(C)[C@@]13C[C@H](C)c4ccccc4[C@@]21O3 (stereo partly specified)	190%
CCOC(=O)N[C@@H](c1ccccc1)[C@@H](O)C(=O)OC1CC2C(C)(C)C1(C)[C@@]13C[C@H](C)c4ccccc4[C@@]21O3 (stereo partly specified)	209%
C=C1C[C@@]23O[C@]2(c2ccccc21)C1CC(OC(=O)[C@H](O)[C@@H](NC(C)=O)c2ccccc2)C3(C)C1(C)C (stereo partly specified)	89%
CCOC(=O)N[C@@H](c1ccc(C)cc1)[C@@H](O)C(=O)OC1CC2C(C)(C)C1(C)[C@@]13C[C@H](C)c4ccccc4[C@@]21O3 (stereo partly specified)	152%
COC(=O)N[C@@H](c1ccncc1)[C@@H](O)C(=O)OC1CC2C(C)(C)C1(C)[C@@]13C[C@]4(CO4)c4ccccc4[C@@]21O3 (stereo partly specified)	423%
C=C1C[C@@]23O[C@]2(c2ccccc21)C1CC(OC(=O)[C@H](O)[C@@H](NC(=O)OCC)c2cccs2)C3(C)C1(C)C (stereo partly specified)	215%
C[C@H]1C[C@@]23O[C@]2(c2ccccc21)C1CC(OC(=O)[C@H](O)[C@@H](NC(=O)NC(C)(C)C)c2ccccc2)C3(C)C1(C)C (stereo partly specified)	153%
C=C1C[C@@]23O[C@]2(c2ccccc21)C1CC(OC(=O)[C@H](O)[C@@H](NC(=O)NC(C)(C)C)c2ccccc2)C3(C)C1(C)C (stereo partly specified)	92%
CCOC(=O)N[C@@H](c1ccc(OC)cc1)[C@@H](O)C(=O)OC1CC2C(C)(C)C1(C)[C@@]13C[C@H](C)c4ccccc4[C@@]21O3 (stereo partly specified)	125%
C=C1C[C@@]23O[C@]2(c2ccccc21)C1CC(OC(=O)[C@H](O)[C@@H](NC(=O)OCC)c2ccc(C)cc2)C3(C)C1(C)C (stereo partly specified)	142%
C=C1C[C@@]23O[C@]2(c2ccccc21)C1CC(OC(=O)[C@H](O)[C@@H](NC(=O)OC(C)(C)C)c2ccccc2)C3(C)C1(C)C (stereo partly specified)	27%
COC(=O)N[C@@H](c1ccc(O)cc1)[C@@H](O)C(=O)OC1CC2C(C)(C)C1(C)[C@@]13CC(C)c4ccccc4[C@@]21O3 (stereo partly specified)	293%
C=C1C[C@@]23O[C@]2(c2ccccc21)C1CC(OC(=O)[C@H](O)[C@@H](NC(=O)OCC)c2ccoc2)C3(C)C1(C)C (stereo partly specified)	119%
C=C1C[C@@]23O[C@]2(c2ccccc21)C1CC(OC(=O)[C@H](O)[C@@H](NC(=O)CCC)c2ccccc2)C3(C)C1(C)C (stereo partly specified)	114%
C=C1C[C@@]23O[C@]2(c2ccccc21)C1CC(OC(=O)[C@H](O)[C@@H](NC(=O)OCC)c2ccccc2)C3(C)C1(C)C (stereo partly specified)	228%

Molecular target: Tubulin beta chain (Bos taurus) (UniProt Q6B856)
Assay: Compound was tested for its effect on microtubule stabilization isolated from bovine brain; NS: not significant

Compound	Relative stability
CCOC(=O)N[C@@H](c1ccccc1)[C@@H](O)C(=O)OC1CC2C(C)(C)C1(C)[C@@]13C[C@@H](C)c4ccccc4[C@@]21O3 (stereo partly specified)	inactive
CCOC(=O)N[C@@H](c1ccc(OCc2ccccc2)cc1)[C@@H](O)C(=O)OC1CC2C(C)(C)C1(C)[C@@]13C[C@H](C)c4ccccc4[C@@]21O3 (stereo partly specified)	inactive
C=C1C[C@@]23O[C@]2(c2ccccc21)C1CC(OC(=O)[C@H](O)[C@@H](NC(=O)NCC)c2ccccc2)C3(C)C1(C)C (stereo partly specified)	inactive
CCOC(=O)N[C@@H](c1ccsc1)[C@@H](O)C(=O)OC1CC2C(C)(C)C1(C)[C@@]13C[C@](O)(COC(C)=O)c4ccccc4[C@@]21O3 (stereo partly specified)	inactive
CCCCOC(=O)N[C@@H](c1ccccc1)[C@@H](O)C(=O)OC1CC2C(C)(C)C1(C)[C@@]13C[C@H](C)c4ccccc4[C@@]21O3 (stereo partly specified)	inactive
C=C1C[C@@]23O[C@]2(c2ccccc21)C1CC(OC(=O)[C@H](O)[C@@H](NC(=O)OCC)c2ccc(OCc4ccccc4)cc2)C3(C)C1(C)C (stereo partly specified)	inactive
